Common to all, as to assay type: cell-based
The test system of test [1] is Human Rhinovirus 14 (HRV14). Briefly: H1-HeLa HRV-CTG EC50, HRV14. Particulars: Rhinovirus B, 96 h; H1-HeLa cells, HRV14, MOI 1.0, 4 days, Celltiter-Glo; read-out: EC50 H1-HeLa_HRV14_HRV-CTG 384-well Assay (per Ex Z). From the text: (§1) Example Z: H1-HeLa HRV-CTG EC50
(§2) H1-Hela cell line (ATCC, Manassas, VA, Cat #CRL-1958) was maintained in Dulbecco's […] Essential Medium (DMEM) (Corning, New York, NY, Cat #15-018 CM) supplemented with 10% fetal bovine serum (FBS) (Hyclone, Logan, UT, Cat #SH30071-03), and 1× Penicillin-Streptomycin-L-Glutamine (Corning, New York, NY, Cat #30-009-CI). Cells were passaged 2 times per week to maintain sub-confluent densities and were used for experiments at passage 5-30. The Human Rhinovirus 1B (HRVIB) (ATCC, Manassas, VA, Cat #VR-1645), Human Rhinovirus 14 (HRV14) (ATCC, Manassas, VA, Cat #VR-284), and Human Rhinovirus 16 (HRV16) (ATCC, Manassas, VA, Cat #BR-283) was obtained through ATCC. Viral infection was monitored by determining viability of H1-HeLa cells as described below.
(§3) Test molecules are prepared in 100% DMSO in 384-well polypropylene plates (Greiner, Monroe, NC, Cat #784201) with 8 compounds per plate in grouped replicates of 4 at 10 serially diluted concentrations (1:3). […]
(§4) The test compounds were spotted to 384-well assay plates (Greiner, Monroe, NC, Cat #781091) at 200 nL per well using an Echo acoustic dispenser (Labcyte, Sunnyvale, CA). […] 40 μL per well of Celltiter-Glo reagent was added and the plates were incubated at room temperature for 15 minutes before reading the luminescence signal on an En Vision multimode plate reader (Perkin Elmer, Waltham, MA). […]

In test [2] the test system is Human Rhinovirus 1B (HRVIB). Put plainly: H1-HeLa HRV-CTG EC50, HRV1B. The note with it: Rhinovirus A, 96 h, H1-HeLa cells, MOI 0.5, 4 days, Celltiter-Glo, read-out: EC50 H1-HeLa_HRV1B_HRV-CTG 384-well Assay (per Ex. Z).
Excerpt: as §1, §2, §3, §4
Background: ATP-based viability assays read luminescence as a measure of living cells.

The test system of a further test is RSV strain A2. Put plainly: RSV Cellomics assay for RSV A2 antiviral activity (EC50-RSV-Hep2-96-Cellomics). Particulars: human respiratory syncytial virus, HEp-2, 72 h; Hep2 cells, RSV strain A2, MOI=0.05, 3 days, RSV F protein immunofluorescence; read-out: EC50-RSV-HEp2-96-Cellomics Example B1. The protocol:
Example B1: RSV Cellomics Assay for RSV A2 Antiviral Activity (EC50-RSV-Hep2-96-Cellomics)
8×10^3 Hep2 cells are seeded into 96 well plates in 100 μL of media (DMEM supplemented with GlutaMAX, 10% FBS and Pen/Strep) and briefly spun at 50×g for 1 minute to attach cells. Cells were further allowed to attach with overnight incubation at 37° C.+5% CO2. The following day, the media was aspirated and 100 μL of fresh DMEM media containing 2% FBS was added. A three-fold dilution series of compounds of interest are then added to the plate using the Tecan D300e dispenser and the plate is normalized to the well with the highest volume of DMSO. The cells are next infected by adding 100 μL of media containing RSV strain A2 at an MOI=0.05 and the plates incubated for 3 days at 37° C.+5% CO2. Following the incubation, the media is removed, and the cells are washed once with 250 μL PBS and fixed with 250 μL ice-cold 100% methanol for 10 minutes at 4 C. The methanol is then removed and the plates air dried for 5 minutes and then washed once with 250 μL PBS to remove any residual methanol. The wells are then blocked 60 μL/well of BlockAid (B10710, Thermo-Fisher) for 1 hour at RT on rocker at which point the blocking buffer is carefully aspirated. Primary antibody against the RSV F protein (MAB 858-1) is then diluted 1:2000 in SuperBlock (37515, Thermo Fisher) and 50 μL of the primary antibody solution is added to each well. The plates are incubated at room temperature for 1 hour with gentle agitation and then washed with 250 μL of PBS-Tween 3 times. A goat anti-mouse AlexaFluor 647 conjugated secondary antibody (Sigma, A21235) is then diluted 1:2000 and Hoescht 33342 (H3570) at 1:1000 in SuperBlock and 50 μL added to the wells for 1 hour at 37° C. After incubation the antibody solution is aspirated, and the wells are then washed with 250 μL of PBS-Tween 3 times. To keep cells from drying out, 100 μL of PBS is added to each well and the plates are sealed with black plate seal. Fluorescence at the 647 nm wavelength is measured using a Cellomics CellInsight CX7 machine. Compound activity is determined as a percentage of the % positive cells (or average intensity) compared to DMSO treated RSV infected well controls following subtraction of uninfected controls. The EC50 values are then calculated using nonlinear regression analysis in GraphPad Prism.

With `N#Cc1cc(F)cc(CO[C@H](COCCCCCCCCCCCCCCCCCC(F)(F)F)COP(=O)(O)OC[C@@]2(C#N)O[C@@H](c3ccc4c(N)ncnn34)[C@H](O)[C@@H]2O)c1` [Compound 1, ((2R,3S,4R,5S)-5-(4-aminopyrrolo[2,1-f][1,2,4]triazin-7-yl)-2-cyano-3,4-dihydroxytetrahydrofuran-2-yl)methyl ((R)-2-((3-cyano-5-fluorobenzyl)oxy)-3-((18,18,18-trifluorooctadecyl)oxy)propyl) hydrogen phosphate], the EC50 (in general, the concentration that produces a half-maximal response) in test [1] amounted to 34 nM; in test [2], 12 nM; with RSV strain A2, 76 nM.
The corresponding values for `N#Cc1cc(F)cc(CO[C@H](CCCCCCCCCCCCCCCCCCC(F)(F)F)COP(=O)(O)OC[C@@]2(C#N)O[C@@H](c3ccc4c(N)ncnn34)[C@H](O)[C@@H]2O)c1` [Compound 2, ((2R,3S,4R,5S)-5-(4-aminopyrrolo[2,1-f][1,2,4]triazin-7-yl)-2-cyano-3,4-dihydroxytetrahydrofuran-2-yl)methyl ((R)-2-((3-cyano-5-fluorobenzyl)oxy)-21,21,21-trifluorohenicosyl) hydrogen phosphate] are 87 nM, 62 nM and 241 nM.

The record behind these values is patent publication US20240309028A1, “PHOSPHOLIPID COMPOUNDS AND METHODS OF MAKING AND USING THE SAME” (Gilead Sciences, Inc., priority 2023, published 2024).
